For orientation: Km means the substrate concentration at which the rate is half of its maximum. In general, kcat refers to the number of substrate molecules converted per active site and unit of time at saturation.

The values below come from article PMC7005905, “Identification and characterization of a bacterial core methionine synthase” (Scientific Reports, 2020).

For one data set, the target named is T1, tr-MetEEco (Escherichia coli, UniProt P25665).
T1 construct: gene metE; tandem-repeat MetE, full length, 753 residues, 85 kDa, recombinant in E. coli DH10B (pBAD30_MetE), anion exchange; source strain of the gene not in main text (K-12 likely)
T1 sequence (P25665 2-753): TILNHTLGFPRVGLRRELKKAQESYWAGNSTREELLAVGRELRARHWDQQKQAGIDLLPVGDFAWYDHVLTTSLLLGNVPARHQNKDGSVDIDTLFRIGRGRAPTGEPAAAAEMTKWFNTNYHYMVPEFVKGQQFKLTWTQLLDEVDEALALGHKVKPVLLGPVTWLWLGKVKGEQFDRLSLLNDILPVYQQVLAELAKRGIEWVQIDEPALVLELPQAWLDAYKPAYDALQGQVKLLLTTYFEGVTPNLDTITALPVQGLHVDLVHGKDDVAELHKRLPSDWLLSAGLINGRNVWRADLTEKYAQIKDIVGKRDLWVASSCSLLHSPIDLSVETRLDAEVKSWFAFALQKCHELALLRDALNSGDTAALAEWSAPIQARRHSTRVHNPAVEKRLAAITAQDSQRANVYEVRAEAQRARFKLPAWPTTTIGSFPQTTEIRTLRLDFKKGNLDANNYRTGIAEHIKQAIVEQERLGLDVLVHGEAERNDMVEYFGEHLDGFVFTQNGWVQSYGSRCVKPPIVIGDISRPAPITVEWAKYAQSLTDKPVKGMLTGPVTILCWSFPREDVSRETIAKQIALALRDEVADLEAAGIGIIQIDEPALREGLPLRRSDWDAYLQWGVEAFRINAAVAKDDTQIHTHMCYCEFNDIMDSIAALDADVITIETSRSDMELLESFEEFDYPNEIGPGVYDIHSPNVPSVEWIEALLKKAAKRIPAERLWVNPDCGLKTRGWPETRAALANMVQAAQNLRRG
Put plainly: HPLC and MS of products. As to conditions: 2 mM D,L-homocysteine, 150 µM 5-methyl-THF-Glu3, pH 7.2, 100 µM MgSO4, 100 µM ZnSO4, 10 mM DTT, 37 °C. The data set is classed as biochemical.

A further data set has as its target T2, core-MetECBDB (Dehalococcoides mccartyi, UniProt A0A916P3S8).
T2 construct: gene cbdbA481
As to conditions: 2 mM D,L-homocysteine, 50 mM Tris/HCl pH 6.5, 150 mM NaCl, 10% glycerol, anoxic, 0.1 µM enzyme; Hill fit.

Substrate in the data set “purified protein”: NC(CCS)C(=O)O
The data set is described as follows: purified protein. To be noted: 0.5 mM methylcob(III)alamin, 50 mM Tris/HCl pH 6.5, 150 mM NaCl, 10% glycerol, anoxic, 0.1 µM enzyme, racemate, enzyme taken as L-specific, Hill fit.

As for `NC(CCS)C(=O)O` (racemic) [D,L-homocysteine], the “HPLC and MS of products” value on tr-MetEEco is “in the presence of tr-MetEEco, methionine was formed”.
For `C.C/C1=C2/N[C@H]([C@H](CC(N)=O)[C@@]2(C)CCC(=O)NC[C@@H](C)OP(=O)(O)O[C@H]2[C@@H](O)[C@@H](n3cnc4cc(C)c(C)cc43)O[C@@H]2CO)[C@]2(C)N=C(/C(C)=C3N=C(/C=C4N=C1[C@@H](CCC(N)=O)C\4(C)C)[C@@H](CCC(N)=O)[C@]\3(C)CC(N)=O)[C@@H](CCC(N)=O)[C@]2(C)CC(N)=O.[Co]` [MeCbl(III), methylcob(III)alamin], the Km at core-MetECBDB worked out at 236 ± 3 µM.

B1: core-MetECBDB (Dehalococcoides mccartyi CBDB1) (protein)
chain: MTKTDFYFLPTMIGSMPHTDPKAAVDIITHYLRDIPVWPQLPRRSYLEGMSAQFSQGLPGVNINQDKMWIEPNSGFEGELESLYQAYLDNDFNKFPIGVEYAAGLYELASRSNLSPKLVKGHITGPLTYCMSIKDPSGKDILYDEVLSDAATKLLKLKASWQEHFLKKICRNTIIFVDEPAMSAYGSAYLPLSREQVTGMFEEVFSGISGLKGVHCCGNTDWSILMDTSVDIINFDTYSYADSLAIYTDALQAFIKRGGAVAWGIVPTDEKALKEETAASLKDRLEAAMSHFDSKGLPFAELARHSLITPACGLGLKSLDAAERAPELLAELSALLRRKHGTV
On to B1, for which, in “purified protein”, the Michaelis constant (Km) amounted to 98 ± 0 µM and the kcat was around 60 s⁻¹.
